Series [1] is described as follows: PAMPA (parallel artificial membrane permeability assay). Type of series: in vitro ADME. The note with it: PAMPA. In short, it runs like this: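 Artificial membrane was 10% (w/v) egg lecithin plus 0.5% (w/v) cholesterol in dodecane on a PVDF filter. A 10 mM DMSO stock was added at 0.5% (v/v) to donor buffer (50 mM MOPSO, pH 6.5, 5.0% glycocholic acid). After 18 h at 37 °C, LC/MS or LC/UV gave donor and acceptor levels for Pe.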
(In general: In PAMPA a lipid-coated filter parts donor from acceptor wells.)

Series [2] in a line: Metabolic stability in human hepatic microsome. Type of series: in vitro ADME. The note with it: microsomes.
[3] abbreviates: membrane permeation rate (Pe), 50 mM MOPSO buffer pH 6.5 with 5.0% glycocholic acid, 37° C., 18 hours, read-out: iPAMPA Pe.
[4] abbreviates: pH 7.4, human hepatic microsome, NADPH(+), read-out: CL NADPH(+).

Each structure is given as a SMILES string. Like-named read-outs stand apart in the source and are kept apart here. Starred links: 1 amine or outer side, 2 acyl side, 3 side chain; linkers in the order of their positions; H or OH if unused. Positions of bridges follow the written chain, without caps; N, C: chain ends. Non-standard residues stand in square brackets, D forms with d. Residues, ends and D or L forms follow the SMILES beside them. *: point of attachment. NMePhe(3-Cl) = CN[C@@H](Cc1cccc(Cl)c1)C(=O)O; NMeF = CN[C@@H](Cc1ccccc1)C(=O)O; NMeβAla = CN(CCC(=O)[*:2])[*:1]; NMeL = CN[C@@H](CC(C)C)C(=O)O; NMeA = CN[C@@H](C)C(=O)O; Piperidide = C1CCN(*)CC1; Sar = CNCC(=O)O

`CC[C@H](C)[C@H](NC(=O)[C@H](C)N(C)C(=O)[C@H](CC(C)C)N(C)C(=O)[C@@H](NC(=O)[C@@H]1CC(=O)N(C)[C@@H](C)C(=O)N[C@@H]([C@@H](C)O)C(=O)N(C)[C@@H](Cc2ccccc2)C(=O)N[C@@H](C(C)C)C(=O)N2CCC[C@H]2C(=O)N(C)[C@@H](Cc2ccccc2)C(=O)N[C@@H](CC(C)C)C(=O)N(C)[C@@H](Cc2ccccc2)C(=O)N1)C(C)C)C(=O)N1CCCCC1` [DP-943] ([NMeA]T[NMeF]VP[NMeF]L[NMeF]DV[NMeL][NMeA]I-Piperidide; lactam N-9) yielded a Papp at 18 hours, 50 µM in series [1] (pH 6.5) of 0.1 ×10⁻⁶ cm/s. Also, the microsomal CLint at 1 uM in series [2] (human, pH 7.4, CL NADPH(+)) was 7 µL/min/mg.

Take `CC[C@H](C)[C@H](NC(=O)[C@H](CC(C)C)N(C)C(=O)[C@H](CC(C)C)NC(=O)[C@H](C)N(C)C(=O)[C@@H]1CC(=O)N[C@H](C(C)C)C(=O)N(C)[C@@H](CC(C)C)C(=O)N(C)[C@@H](CC(C)C)C(=O)N[C@@H](C)C(=O)N[C@@H](Cc2ccccc2)C(=O)N[C@@H]([C@@H](C)O)C(=O)N[C@@H](CC(C)C)C(=O)N(C)[C@@H](Cc2ccccc2)C(=O)N(C)[C@@H](CC(C)C)C(=O)N1)C(=O)N1CCCCC1` [DP-944] ([dV][NMeL][NMeL]AFTL[NMeF][NMeL]D[NMeA]L[NMeL]I-Piperidide; lactam N-10): in series [1] (setting [3]), the Papp at 18 hours, 50 µM came to 0.1 ×10⁻⁶ cm/s. Further, the microsomal CLint at 1 uM in series [2] (setting [4]) was 20 µL/min/mg.

With `CC[C@H](C)[C@H](NC(=O)[C@H](CC(C)C)N(C)C(=O)[C@H](CC(C)C)NC(=O)[C@H](C)N(C)C(=O)[C@@H]1CC(=O)N[C@@H](C)C(=O)N(C)[C@@H](CC(C)C)C(=O)N[C@@H](C(C)C)C(=O)N[C@@H](C)C(=O)N(C)[C@@H](CC(C)C)C(=O)N(C)[C@@H](CC(C)C)C(=O)N(C)[C@@H](Cc2ccccc2)C(=O)N[C@@H]([C@@H](C)O)C(=O)N(C)[C@@H](Cc2ccccc2)C(=O)N1)C(=O)N1CCCCC1` [DP-945] (A[NMeL]VA[NMeL][NMeL][NMeF]T[NMeF]D[NMeA]L[NMeL]I-Piperidide; lactam N-10), the Papp at 18 hours, 50 µM in series [1] (setting [3]) was 0.1 ×10⁻⁶ cm/s. In addition, the microsomal CLint at 1 uM in series [2] (setting [4]) stood at 28 µL/min/mg.

On to `CC[C@H](C)[C@@H]1NC(=O)[C@H](CC(C)C)N(C)C(=O)[C@H](Cc2cccc(Cl)c2)N(C)C(=O)[C@H](Cc2ccccc2)NC(=O)[C@H](CC(C)C)N(C)C(=O)[C@H](C)N(C)C(=O)[C@H]([C@@H](C)O)NC(=O)[C@H](C)N(C)C(=O)C[C@@H](C(=O)N[C@H](C(=O)N(C)[C@@H](CC(C)C)C(=O)N(C)[C@@H](Cc2ccccc2)C(=O)N[C@H](C(=O)N2CCCCC2)[C@@H](C)CC)[C@@H](C)CC)NC(=O)[C@H](C(C)C)NC1=O` [DP-946] ([NMeA]T[NMeA][NMeL]F[NMePhe(3-Cl)][NMeL]IVDI[NMeL][NMeF]I-Piperidide; lactam N-10), for which, in series [1] (setting [3]), the Papp at 18 hours, 50 µM was 0.1 ×10⁻⁶ cm/s. Further, in series [2] (setting [4]), the microsomal CLint at 1 uM was found to be 15 µL/min/mg.

In the case of `CC[C@H](C)[C@@H]1NC(=O)[C@H](CC(C)C)N(C)C(=O)[C@H](Cc2ccccc2)N(C)C(=O)[C@H](Cc2ccccc2)NC(=O)[C@H](C)N(C)C(=O)[C@H](CC(C)C)N(C)C(=O)[C@@H](C(C)C)NC(=O)C[C@@H](C(=O)N(C)[C@@H](CC(C)C)C(=O)N[C@H](C(=O)N(C)[C@@H](C)C(=O)N[C@H](C(=O)N2CCCCC2)[C@@H](C)CC)C(C)C)NC(=O)[C@H](CC(C)C)NC(=O)[C@H]([C@@H](C)O)NC1=O` [DP-947] ([dV][NMeL][NMeA]F[NMeF][NMeL]ITLD[NMeL]V[NMeA]I-Piperidide; lactam N-10), the Papp at 18 hours, 50 µM in series [1] (setting [3]) came out at 0.1 ×10⁻⁶ cm/s. For the same compound, the microsomal CLint at 1 uM in series [2] (setting [4]) stood at 14 µL/min/mg.

For `CC[C@H](C)[C@H](NC(=O)[C@H](CC(C)C)N(C)C(=O)[C@@H]1CCCN1C(=O)[C@H](Cc1ccccc1)N(C)C(=O)[C@@H]1CC(=O)N(C)CCC(=O)N[C@@H](Cc2ccccc2)C(=O)N(C)[C@@H](CC(C)C)C(=O)N[C@@H]([C@@H](C)O)C(=O)N[C@@H](C(C)C)C(=O)NCC(=O)N(C)[C@@H](CC(C)C)C(=O)N[C@@H](CC(C)C)C(=O)N(C)[C@@H](CC(C)C)C(=O)N1)C(=O)N1CCCCC1` [DP-948] ([NMeβAla]F[NMeL]TVG[NMeL]L[NMeL]D[NMeF]P[NMeL]I-Piperidide; lactam N-10), the Papp at 18 hours, 50 µM in series [1] (setting [3]) is 0.78 ×10⁻⁶ cm/s. The microsomal CLint at 1 uM in series [2] (setting [4]) worked out at 20 µL/min/mg.

As for `CC[C@H](C)[C@H](NC(=O)[C@@H](NC(=O)[C@H](Cc1ccccc1)NC(=O)[C@@H]1CC(=O)N[C@H](C(C)C)C(=O)N(C)[C@@H](C)C(=O)N(C)[C@@H](CC(C)C)C(=O)N[C@@H]([C@@H](C)O)C(=O)N(C)CC(=O)N(C)[C@@H](Cc2ccccc2)C(=O)N(C)[C@@H](CC(C)C)C(=O)N(C)[C@@H](Cc2cccc(Cl)c2)C(=O)N(C)[C@@H](CC(C)C)C(=O)N[C@@H](C)C(=O)N1)C(C)C)C(=O)N1CCCCC1` [DP-949] ([dV][NMeA][NMeL]T[Sar][NMeF][NMeL][NMePhe(3-Cl)][NMeL]ADFVI-Piperidide; lactam N-11), in series [1] (setting [3]), the Papp at 18 hours, 50 µM was found to be 0.11 ×10⁻⁶ cm/s. Moreover, the microsomal CLint at 1 uM in series [2] (setting [4]) is 37 µL/min/mg.

Regarding `CC[C@H](C)[C@@H]1NC(=O)[C@H](CC(C)C)NC(=O)[C@H](C)N(C)C(=O)[C@H](CC(C)C)N(C)C(=O)[C@H](CC(C)C)NC(=O)[C@H](Cc2cccc(Cl)c2)N(C)C(=O)[C@H]([C@@H](C)O)NC(=O)[C@H](C)N(C)C(=O)[C@H](C(C)C)NC(=O)[C@H](C)N(C)C(=O)C[C@@H](C(=O)N(C)[C@@H](Cc2ccccc2)C(=O)N(C)[C@@H](CC(C)C)C(=O)N[C@H](C(=O)N2CCCCC2)[C@@H](C)CC)NC1=O` [DP-950] ([NMeA]V[NMeA]T[NMePhe(3-Cl)]L[NMeL][NMeA]LID[NMeF][NMeL]I-Piperidide; lactam N-11), in series [1] (setting [3]), the Papp at 18 hours, 50 µM was 0.1 ×10⁻⁶ cm/s. For the same compound, the microsomal CLint at 1 uM in series [2] (setting [4]) was determined as 12 µL/min/mg.

Take `CC[C@H](C)[C@H](NC(=O)[C@@H](NC(=O)[C@H](C)N(C)C(=O)[C@@H]1CC(=O)N(C)[C@@H](C)C(=O)N(C)[C@@H](CC(C)C)C(=O)N(C)[C@@H](CC(C)C)C(=O)N[C@@H](CC(C)C)C(=O)N(C)[C@@H](CC(C)C)C(=O)N(C)[C@@H](Cc2ccccc2)C(=O)N(C)[C@@H](Cc2ccccc2)C(=O)N[C@@H]([C@@H](C)O)C(=O)N(C)[C@@H](C)C(=O)N(C)[C@@H](CC(C)C)C(=O)N1)C(C)C)C(=O)N1CCCCC1` [DP-951] ([NMeA][NMeL][NMeL]L[NMeL][NMeF][NMeF]T[NMeA][NMeL]D[NMeA]VI-Piperidide; lactam N-11): the Papp at 18 hours, 50 µM in series [1] (setting [3]) came out at 0.1 ×10⁻⁶ cm/s. The microsomal CLint at 1 uM in series [2] (setting [4]) turned out to be 11 µL/min/mg.

For the compound `CC[C@H](C)[C@H](NC(=O)[C@H](Cc1ccccc1)NC(=O)[C@@H]1CC(=O)N[C@@H](C)C(=O)N[C@@H]([C@@H](C)O)C(=O)N(C)CC(=O)N[C@@H](CC(C)C)C(=O)N2CCC[C@H]2C(=O)N(C)[C@@H](CC(C)C)C(=O)N[C@@H](Cc2ccccc2)C(=O)N(C)[C@@H](Cc2ccccc2)C(=O)N(C)[C@@H](CC(C)C)C(=O)N[C@@H](C)C(=O)N(C)[C@@H](CC(C)C)C(=O)N1)C(=O)N1CCCCC1` [DP-952] (AT[Sar]LP[NMeL]F[NMeF][NMeL]A[NMeL]DFI-Piperidide; lactam N-12), in series [1] (pH 6.5), the Papp at 18 hours, 50 µM is 4.4 ×10⁻⁶ cm/s. For the same compound, the microsomal CLint at 1 uM in series [2] (human, pH 7.4, CL NADPH(+)) came out at 91 µL/min/mg.

For the origin of these results see US9409952B2, “Peptide-compound cyclization method” (Chugai Seiyaku Kabushiki Kaisha, priority 2011, dated 2016).
